Laboratory results taken from ChEMBL document CHEMBL1126506, “Thoromboxane A2/endoperoxide receptor antagonists: 1,3-Dioxane and 1,3-dioxolane analogs” (Bioorg Med Chem Lett, 1993).

Tests used:
[1] = target: T1, Thromboxane A2 receptor (Homo sapiens, UniProt P21731); experiment: In vitro inhibition against TXA2/PGH2 receptor using [3H]-SQ 29,548 as radioligand in human platelet membrane preparation; format: cell membranes; conditions: read-out: I50
T1 sequence (P21731 whole entry): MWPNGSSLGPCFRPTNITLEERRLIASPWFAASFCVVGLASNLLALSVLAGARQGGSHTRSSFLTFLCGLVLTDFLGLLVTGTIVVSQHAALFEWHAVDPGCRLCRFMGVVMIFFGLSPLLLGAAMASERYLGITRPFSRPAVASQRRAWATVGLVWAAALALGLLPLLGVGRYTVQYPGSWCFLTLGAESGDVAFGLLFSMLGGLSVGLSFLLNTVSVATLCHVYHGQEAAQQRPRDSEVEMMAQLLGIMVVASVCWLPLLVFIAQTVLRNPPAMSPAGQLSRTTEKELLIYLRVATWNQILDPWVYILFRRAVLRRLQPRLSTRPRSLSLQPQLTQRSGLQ

[2] = target: T1, Thromboxane A2 receptor; experiment: In vitro binding affinity was determined for platelet thromboxane receptor in presence of [3H]-SQ 29548
[3] = species: Homo sapiens; experiment: Tested for ability to inhibit arachidonic acid-induced and ADP-induced platelet aggregation of human platelet rich plasma; format: functional; conditions: read-out: I50

| Compound | IC50 [1] | Kd [2] | IC50 [3] |
| --- | --- | --- | --- |
| CCCCCNC(=O)c1coc(C2C3CCC(O3)C2Cc2ccccc2CCC(=O)O)n1 (stereo not given) [BMS-180291] |  |  | 0.007 µM |
| O=C(O)CCc1ccccc1CC1C2CCC(O2)C1c1nc(C(=O)NCCc2ccc(Cl)cc2)co1 (stereo not given) | 0.007 µM |  |  |
| O=C(O)CCc1ccccc1CC1OCOC1c1nc(C(=O)NCCc2ccc(Cl)cc2)co1 (racemic) | 0.13 µM | 0.0311 µM |  |

Further compounds by falling IC50 [1], results first:

| IC50 [1] | Kd [2] | IC50 [3] | Compound |
| --- | --- | --- | --- |
| 3.1 µM | 0.045 µM |  | O=C(O)CCc1ccccc1CC1OCOC1c1nc(C(=O)NCCc2ccc(Cl)cc2)co1 (trans isomer; (+)) |
| 0.33 µM | 0.008 µM |  | O=C(O)CCc1ccccc1CC1COCOC1c1nc(C(=O)NCCc2ccc(Cl)cc2)co1 (stereo not given) |
| 0.31 µM | 0.0082 µM |  | O=C(O)CCc1ccccc1CC1OCOC1c1nc(C(=O)NCCc2ccc(Cl)cc2)co1 (trans isomer; (-)) |
